# According to the NIST ThermoML archive (doi:10.1016/j.jct.2014.01.031):
# Numbers after ± are expanded uncertainties.
# How the values were obtained:
# [1] = 298.15 K, 101 kPa, Liquid; for electrical conductivity: Alternating current cell with electrodes; for viscosity: Falling or rolling sphere viscometry; for self diffusion coefficient: PFG NMR Spectroscopy
# [2] = xn = mol fraction of the nth substance listed; settings: 298.15 K, 101 kPa, Liquid; for electrical conductivity: Alternating current cell with electrodes; for viscosity: Falling or rolling sphere viscometry
structure (smiles),measurement,setting,value
CCCCn1cc[n+](C)c1.COS(=O)(=O)[O-] [1-butyl-3-methylimidazolium methyl sulfate],electrical conductivity,[1],0.126 ± 0.002 S/m
same,viscosity,[1],223 ± 12 mPa·s
same,self diffusion coefficient,[1],1.3e-11 m2/s
CCCCn1cc[n+](C)c1.COS(=O)(=O)[O-] [1-butyl-3-methylimidazolium methyl sulfate] + O,electrical conductivity,[2]; x2 = 0,0.126 ± 0.002 S/m
same,electrical conductivity,[2]; x2 = 0.1999,0.247 ± 0.003 S/m
same,electrical conductivity,[2]; x2 = 0.4037,0.4 ± 0.005 S/m
same,electrical conductivity,[2]; x2 = 0.617,0.799 ± 0.01 S/m
same,electrical conductivity,[2]; x2 = 0.7937,1.77 ± 0.021 S/m
same,electrical conductivity,[2]; x2 = 0.9437,3.42 ± 0.041 S/m
same,electrical conductivity,[2]; x2 = 0.992,1.92 ± 0.044 S/m
same,electrical conductivity,[2]; x2 = 0.9977,0.849 ± 0.039 S/m
same,viscosity,[2]; x2 = 0,223 ± 12 mPa·s
same,viscosity,[2]; x2 = 0.1999,112 ± 4 mPa·s
same,viscosity,[2]; x2 = 0.4037,63.1 ± 2.1 mPa·s
same,viscosity,[2]; x2 = 0.617,27.6 ± 1 mPa·s
same,viscosity,[2]; x2 = 0.7937,11.5 ± 0.4 mPa·s
CCn1cc[n+](C)c1.COS(=O)(=O)[O-] [1-ethyl-3-methylimidazolium methylsulfate],electrical conductivity,[1],0.547 ± 0.007 S/m
same,viscosity,[1],81.4 ± 2.7 mPa·s
same,self diffusion coefficient,[1],4.6e-11 m2/s
CCn1cc[n+](C)c1.COS(=O)(=O)[O-] [1-ethyl-3-methylimidazolium methylsulfate] + O,electrical conductivity,[2]; x2 = 0,0.547 ± 0.007 S/m
same,electrical conductivity,[2]; x2 = 0.2542,0.909 ± 0.011 S/m
same,electrical conductivity,[2]; x2 = 0.4994,1.6 ± 0.019 S/m
same,electrical conductivity,[2]; x2 = 0.7519,3.16 ± 0.038 S/m
same,electrical conductivity,[2]; x2 = 0.8053,3.99 ± 0.048 S/m
same,electrical conductivity,[2]; x2 = 0.9249,6.23 ± 0.075 S/m
same,electrical conductivity,[2]; x2 = 0.9737,4.58 ± 0.055 S/m
same,viscosity,[2]; x2 = 0,81.4 ± 2.7 mPa·s
same,viscosity,[2]; x2 = 0.2542,39.7 ± 1.3 mPa·s
same,viscosity,[2]; x2 = 0.4994,20.2 ± 0.7 mPa·s
same,viscosity,[2]; x2 = 0.7519,8.59 ± 0.31 mPa·s
same,viscosity,[2]; x2 = 0.8053,6.62 ± 0.25 mPa·s
same,viscosity,[2]; x2 = 0.9249,2.59 ± 0.1 mPa·s
same,viscosity,[2]; x2 = 0.9737,1.43 ± 0.06 mPa·s
O [water],viscosity,[1],0.89 ± 0.04 mPa·s
same,self diffusion coefficient,[1],2.3e-09 m2/s
O [water] + CCCCn1cc[n+](C)c1.COS(=O)(=O)[O-],viscosity,[2]; x1 = 1,0.89 ± 0.04 mPa·s
O [water] + CCn1cc[n+](C)c1.COS(=O)(=O)[O-],viscosity,[2]; x1 = 1,0.89 ± 0.04 mPa·s
